This note sets out measurements from ChEMBL document CHEMBL1201862, “PubChem BioAssay data set” (2004).

Among the test systems are 786-0; BT-549; CCRF-CEM; HCT-116; HOP-62; Hs-578T; IGROV-1; K562; NCI-H226; NCI-H23; NCI-H522; NCI/ADR-RES; OVCAR-4; OVCAR-8; RPMI-8226; SF-268; SF-539; SK-MEL-5; SNB-19; MDA-N.
Common to all, as to experiment: inhibition of tumour cell growth, NCI panel, 48 h

Molecules are shown by their SMILES. Several values for one entry are separate records, joined by “and”; a condition that tells them apart may be missing. Equal values may be shown once.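 1) Cells in 96-well plates. 2) Compound, 48 h, 5 concentrations. 3) Linear interpolation between surrounding doses. 4) Unreached endpoint = highest concentration. Here, GI50 denotes the concentration required for 50% inhibition of growth.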 Activity calls are given as the source filed them. No stated cut-off is given here; in the data, active = GI50 up to about 1.1 µM and inactive = higher.

For `CCOc1ccc2c(ccc(/C=C/c3cc(C)c4cccnc4c3O)[n+]2C)c1`, the GI50 in the test with 786-0 is 0.53 µM (active); in the test on BT-549 it was 1.52 µM (inactive); with CCRF-CEM it was 0.0673 µM (active); in the test on HCT-116 it was 0.317 µM (active); in the test on HOP-62, 1.14 µM (inactive); with Hs-578T, 6.82 µM (inactive). Also, the GI50 was 0.675 µM (active) in the test with IGROV-1; 0.495 µM (active) with K562; 0.859 µM (active) in the test on NCI-H226; 1.08 µM (active) in the test on NCI-H23; 0.583 µM (active) with NCI-H522; 41.6 µM (inactive) in the test with NCI/ADR-RES. Also, the GI50 in the test on OVCAR-4 was 1.7 µM (inactive); in the test on OVCAR-8, 0.301 µM (active); in the test on RPMI-8226, 0.818 µM (active); with SF-268 it was 0.736 µM (active); in the test with SF-539, 0.485 µM (active); in the test with SK-MEL-5 it was 0.627 µM (active). Also, the GI50 in the test with SNB-19 was 0.594 µM (active).

Turning to `Cc1ccc(NC(=S)N/N=C2\C(=O)Nc3ccccc32)cc1`, the GI50 with 786-0 is > 100 µM (inactive); in the test on CCRF-CEM, 72.1 µM (inactive); in the test on HCT-116, > 100 µM (inactive); in the test with HOP-62, > 100 µM (inactive); in the test with Hs-578T, > 100 µM (inactive); with IGROV-1, 84.7 µM (inactive). The GI50 was > 100 µM (inactive) in the test on K562; > 100 µM (inactive) in the test with MDA-N; 92.3 µM (inactive) in the test on NCI-H226; > 100 µM (inactive) with NCI-H23; > 100 µM (inactive) in the test with NCI-H522; 51.3 µM (inactive) in the test on NCI/ADR-RES. Also, the GI50 was > 100 µM (inactive) in the test on OVCAR-4; > 100 µM (inactive) with OVCAR-8; > 100 µM (inactive) in the test with RPMI-8226; 1.69 µM (inactive) with SF-268; > 100 µM (inactive) in the test on SF-539; 59.7 µM (inactive) in the test with SK-MEL-5. Also, the GI50 in the test on SNB-19 is > 100 µM (inactive).

Turning to `O=C1CN(c2cccc(Cl)c2)C(=O)CN1CCN1CC(=O)N(c2cccc(Cl)c2)CC1=O`, the GI50 with 786-0, in the test on BT-549, in the test with CCRF-CEM, in the test on HCT-116, in the test with HOP-62 and in the test on Hs-578T was > 100 µM (inactive) throughout. For the same compound, the GI50 is > 100 µM (inactive) in the test with IGROV-1; > 100 µM (inactive) with MDA-N; 26.4 µM (inactive) with NCI-H23; > 100 µM (inactive) in the test on NCI-H522; > 100 µM (inactive) in the test with OVCAR-4; > 100 µM (inactive) with OVCAR-8. In addition, the GI50 in the test on RPMI-8226, in the test with SF-268, with SF-539, in the test with SK-MEL-5 and in the test with SNB-19 was > 100 µM (inactive) throughout.

Consider `O=C1Nc2cccc(Cl)c2/C1=C\c1c(-c2ccccc2)nc2n1CCS2`, for which the GI50 in the test with 786-0 is 18 µM (inactive); in the test on BT-549, 22.1 µM (inactive); in the test on CCRF-CEM, 15 µM (inactive); with HCT-116 it was 20.2 µM (inactive); with HOP-62, 25.9 µM (inactive); with Hs-578T, 18.9 µM (inactive). Moreover, the GI50 in the test with IGROV-1 was 12.8 µM (inactive); in the test on K562 it was 17.2 µM (inactive); in the test on MDA-N it was 18.5 µM (inactive); in the test with NCI-H23, 23.3 µM (inactive); in the test with NCI-H522, 30.2 µM (inactive); in the test with NCI/ADR-RES, 16.3 µM (inactive). In addition, the GI50 is 24.7 µM (inactive) in the test with OVCAR-8; 16.5 µM (inactive) with RPMI-8226; 20.3 µM (inactive) in the test on SF-268; 17.1 µM (inactive) in the test with SF-539; 19.5 µM (inactive) in the test with SK-MEL-5; 26.6 µM (inactive) in the test on SNB-19.

On to `COc1ccc(-c2c(C#N)c(N)n(C3OCC(OC(C)=O)C(OC(C)=O)C3OC(C)=O)c(=S)c2C#N)cc1` (stereo not drawn), for which the GI50 with 786-0 was 42.4 µM (inactive) and 36.8 µM (inactive); in the test on BT-549 it was 20.7 µM (inactive) and 16.4 µM (inactive); in the test with CCRF-CEM, 16.4 µM (inactive) and 31 µM (inactive); in the test on HCT-116, 41.1 µM (inactive) and 52.2 µM (inactive); with HOP-62, 40.9 µM (inactive) and 23.6 µM (inactive); in the test with IGROV-1 it was 77.1 µM (inactive) and 63.4 µM (inactive). Besides, the GI50 was 43 µM (inactive) and 51.2 µM (inactive) with MDA-N; 82.8 µM (inactive) and 77.8 µM (inactive) in the test with NCI-H226; > 100 µM (inactive) in the test with NCI-H23; 38.8 µM (inactive) and 53.3 µM (inactive) with NCI-H522; > 100 µM (inactive) in the test on NCI/ADR-RES; 47.3 µM (inactive) and 48.3 µM (inactive) in the test with OVCAR-4. Besides, the GI50 in the test on OVCAR-8 was 39.3 µM (inactive) and 21.8 µM (inactive); in the test on RPMI-8226, 25.9 µM (inactive) and 26.4 µM (inactive); in the test with SF-268 it was 31.4 µM (inactive); in the test with SF-539 it was 88.9 µM (inactive) and 87.9 µM (inactive); with SK-MEL-5, 34.8 µM (inactive); in the test with SNB-19 it was > 100 µM (inactive).

For `CC(=O)Oc1c(C)cc2c(c1C)C(C)(C)CN2C(=O)C(C)(C)C`, the GI50 was > 100 µM (inactive) in the test with 786-0; 65.9 µM (inactive) with CCRF-CEM; 67.9 µM (inactive) with HCT-116; > 100 µM (inactive) with HOP-62; > 100 µM (inactive) in the test with Hs-578T; > 100 µM (inactive) with IGROV-1. Also, the GI50 in the test on K562 is 51.9 µM (inactive); with MDA-N it was > 100 µM (inactive); in the test with NCI-H226, 38.5 µM (inactive); in the test with NCI-H23, 81.1 µM (inactive); with NCI-H522, > 100 µM (inactive); in the test on NCI/ADR-RES, 45.3 µM (inactive). For the same compound, the GI50 was 71.8 µM (inactive) in the test on OVCAR-4; > 100 µM (inactive) in the test with OVCAR-8; 53.8 µM (inactive) in the test with RPMI-8226; > 100 µM (inactive) with SF-268; > 100 µM (inactive) in the test with SF-539; 42.3 µM (inactive) with SK-MEL-5. The GI50 in the test with SNB-19 was > 100 µM (inactive).

With `CNC(=O)c1nn[nH]c1Sc1c([N+](=O)[O-])ncn1C`, the GI50 in the test on 786-0, in the test with BT-549, with CCRF-CEM, with HCT-116, in the test on HOP-62 and in the test with Hs-578T was > 100 µM (inactive) each time. Besides, the GI50 with IGROV-1, in the test with K562, with NCI-H23, with NCI-H522, in the test on NCI/ADR-RES and with OVCAR-4 was > 100 µM (inactive) throughout. In addition, the GI50 in the test on OVCAR-8, in the test with SF-268, in the test on SF-539, in the test on SK-MEL-5 and with SNB-19 was > 100 µM (inactive) in each case.

On to `c1cncc(C2(c3cc4ccccc4[nH]3)COCO2)c1` (stereo not drawn), for which the GI50 with 786-0 was > 100 µM (inactive); in the test with BT-549, > 100 µM (inactive); in the test on CCRF-CEM it was 10.5 µM (inactive); with HCT-116, 71 µM (inactive); with HOP-62, > 100 µM (inactive); with Hs-578T it was > 100 µM (inactive). Moreover, the GI50 is > 100 µM (inactive) with IGROV-1; > 100 µM (inactive) in the test with K562; > 100 µM (inactive) with NCI-H226; > 100 µM (inactive) in the test on NCI-H23; > 100 µM (inactive) in the test with NCI/ADR-RES; 65 µM (inactive) in the test on OVCAR-4. Further, the GI50 was > 100 µM (inactive) in the test on OVCAR-8; > 100 µM (inactive) in the test on RPMI-8226; > 100 µM (inactive) with SF-268; > 100 µM (inactive) with SF-539; 38.2 µM (inactive) in the test with SK-MEL-5; > 100 µM (inactive) in the test with SNB-19.

For `N#Cc1nc(CCC(C(=O)O)N2C(=O)c3ccccc3C2=O)oc1N` (stereo not drawn), the GI50 is > 100 µM (inactive) in the test with 786-0; > 100 µM (inactive) in the test with CCRF-CEM; > 10 µM (inactive) in the test with HCT-116; > 100 µM (inactive) in the test on HOP-62; > 100 µM (inactive) in the test with Hs-578T; > 100 µM (inactive) in the test with IGROV-1. Further, the GI50 with K562, with MDA-N, with NCI-H226, in the test on NCI-H23, in the test on NCI-H522 and with NCI/ADR-RES was > 100 µM (inactive) throughout. In addition, the GI50 in the test on OVCAR-4, with OVCAR-8, with RPMI-8226, in the test on SF-268, in the test with SF-539 and with SK-MEL-5 was > 100 µM (inactive) in each case. Besides, the GI50 with SNB-19 was > 100 µM (inactive).

Turning to `CCOC(=O)C1(C)CCc2sc(N)c(C#N)c21` (stereo not drawn), the GI50 in the test with 786-0, in the test on BT-549, in the test on CCRF-CEM, in the test on HCT-116, with HOP-62 and in the test on Hs-578T was > 100 µM (inactive) in each case. Further, the GI50 with IGROV-1, in the test with K562, with MDA-N, in the test on NCI-H226, in the test on NCI-H23 and in the test with OVCAR-8 was > 100 µM (inactive) each time. The GI50 in the test with RPMI-8226, in the test with SK-MEL-5 and with SNB-19 was > 100 µM (inactive) each time.

`c1ccc2c(c1)-c1ccccc1C2NC1=NCCO1`: the GI50 in the test with 786-0 is 28.1 µM (inactive); in the test on CCRF-CEM, 32.6 µM (inactive); with HCT-116, 16.7 µM (inactive); in the test with HOP-62, 22.5 µM (inactive); in the test with Hs-578T, 55 µM (inactive); in the test with IGROV-1, 16.4 µM (inactive). In addition, the GI50 was 32.8 µM (inactive) in the test on K562; 11.8 µM (inactive) in the test on MDA-N; 23.8 µM (inactive) in the test with NCI-H226; 34.1 µM (inactive) in the test on NCI-H23; 25.6 µM (inactive) with NCI-H522; 23.4 µM (inactive) in the test on NCI/ADR-RES. Further, the GI50 is 25.2 µM (inactive) in the test with OVCAR-4; 20.8 µM (inactive) with OVCAR-8; 28.4 µM (inactive) in the test on RPMI-8226; 30 µM (inactive) in the test with SF-268; 21.7 µM (inactive) in the test on SF-539; 15.7 µM (inactive) with SK-MEL-5. For the same compound, the GI50 in the test with SNB-19 was 36.6 µM (inactive).
